According to ChEMBL document CHEMBL1201862, “PubChem BioAssay data set” (2004):
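Following 48 hours of exposure in 96-well plates, responses at five concentrations were used to interpolate endpoints linearly. GI50 marks 50% less growth.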 Calls of active or inactive are those of the source. Rule as the data show it: active = GI50 up to about 1.1 µM and inactive = higher.

Experiments:
Test in all cases: NCI anticancer screen, dose series, 48 h
[1] = test system: HOP-62
[2] = test system: SN12C
[3] = test system: HT-29
[4] = test system: DLD-1
[5] = test system: OVCAR-3
[6] = test system: ACHN
[7] = test system: TK-10
[8] = test system: SK-MEL-5
[9] = test system: EKVX
[10] = test system: OVCAR-4
[11] = test system: NCI-H226
[12] = test system: RPMI-8226
[13] = test system: U-251
[14] = test system: NCI-H460
[15] = test system: CAKI-1
[16] = test system: SNB-19
[17] = test system: SK-OV-3
[18] = test system: Malme-3M
[19] = test system: T47D
[20] = test system: MDA-N

Measured: GI50

CC(=O)N/C(=C\c1cccc([N+](=O)[O-])c1)c1nc2ccc3c(c2[nH]1)C(=O)c1ccccc1C3=O
inactive: [1] 78 µM | [2] 21 µM | [3] > 100 µM | [4] 12.2 µM | [5] > 100 µM | [6] 4.37 µM | [7] > 56 µM | [8] > 79.6 µM | [9] 12.7 µM | [10] > 65.9 µM | [11] > 100 µM | [12] 5.04 µM | [13] 45.6 µM | [14] 27.2 µM | [15] 11.7 µM | [16] > 100 µM | [17] 13.6 µM | [18] > 74.8 µM

O=[N+]([O-])c1ccc(NC2OCC(O)C(O)C2O)cc1 (stereo not given)
inactive: [1] > 100 µM | [2] > 100 µM | [3] > 100 µM | [4] > 100 µM | [5] > 100 µM | [6] > 100 µM | [7] > 100 µM | [8] > 100 µM | [9] > 100 µM | [10] > 100 µM | [11] > 100 µM | [12] > 100 µM | [13] > 100 µM | [14] > 100 µM | [15] > 100 µM | [16] > 100 µM | [17] > 100 µM | [18] > 100 µM

CN(CC#N)C1CCCC[C@H]1O (stereo not given in full)
inactive: [1] > 100 µM | [2] > 100 µM | [3] > 100 µM | [4] > 100 µM | [5] > 100 µM | [6] > 100 µM | [7] > 100 µM | [8] > 100 µM | [9] > 100 µM | [10] > 100 µM | [11] > 100 µM | [12] > 100 µM | [13] > 100 µM | [14] > 100 µM | [15] > 100 µM | [16] > 100 µM | [17] > 100 µM | [18] > 100 µM

CCOC(=O)CC(=O)ON(C)C(C)=O
inactive: [1] > 100 µM | [2] > 100 µM | [3] > 100 µM | [4] > 100 µM | [5] > 100 µM | [6] > 100 µM | [7] > 100 µM | [8] > 100 µM | [9] > 100 µM | [10] > 100 µM | [11] > 100 µM | [12] > 100 µM | [13] > 100 µM | [14] > 100 µM | [15] > 100 µM | [16] > 100 µM | [17] > 100 µM | [18] > 100 µM

NN
inactive: [1] 259 µM | [2] 403 µM | [3] 234 µM | [4] 296 µM | [5] 431 µM | [6] 593 µM | [7] 893 µM | [8] 594 µM | [9] 883 µM | [10] 625 µM | [11] 481 µM | [12] 303 µM | [13] 410 µM | [14] 188 µM | [15] 445 µM | [16] 887 µM | [19] 618 µM | [17] 1240 µM | [20] 150 µM | [18] 881 µM

c1ccc(C(c2ccccc2)c2cccnc2)cc1
inactive: [1] > 100 µM | [2] > 100 µM | [3] > 100 µM | [4] > 100 µM | [5] > 100 µM | [6] > 100 µM | [7] > 100 µM | [8] 83.8 µM | [9] 99.5 µM | [10] > 100 µM | [11] > 100 µM | [12] 46.1 µM | [13] > 100 µM | [14] > 100 µM | [15] > 100 µM | [16] > 100 µM | [17] > 100 µM | [18] > 100 µM

C/C(=N\N)C(CN(C)C)C(c1ccccc1)c1c(O)c2ccccc2oc1=O (stereo not given)
inactive: [1] > 100 µM | [2] > 100 µM | [3] > 100 µM | [4] > 100 µM | [5] > 100 µM | [6] 99.5 µM | [7] > 100 µM | [8] > 100 µM | [9] > 70.8 µM | [10] > 65.6 µM | [11] > 100 µM | [12] 97.3 µM | [13] > 87.1 µM | [14] > 100 µM | [15] > 100 µM | [16] > 100 µM | [19] > 10 µM | [17] > 100 µM | [20] > 100 µM | [18] > 94.2 µM
